Here are results for 20 compounds from patent US20240190890A1, “MK2 INHIBITORS AND USES THEREOF” (Bristol-Myers Squibb Company, priority 2022, published 2024).

The assay concerns the target p38a activated, mitogen-activated protein kinase-activated protein kinase 2 (MAPKAP-K2 or MK2) enzyme (Homo sapiens (Human), UniProt P49137). Nature of the assay: MK2 Omnia continuous-read kinase assay for compound potency. The conditions noted are these: [MK-2]=0.4 nM, [ATP]=10 μM, [ST3-Sox]=10 μM; room temperature. It counts as biochemical. From the text:
Mitogen-Activated Protein Kinase-Activated Protein Kinase 2 Omnia® Assay for Compound Potency Assessment:
The protocol below describes a continuous-read kinase assay optimized to measure potency of compounds against p38a activated, mitogen-activated protein kinase-activated protein kinase 2 (MAPKAP-K2 or MK2) enzyme. Further details of this assay are described by Life Technologies, Carlsbad, CA on their website at the following URL: http://tools.lifetechnologies.com/content/sfs/manuals/omnia_kinase_assay_man.pdf. • [Reagent] used: • [MK-2]=0.4 nM, • [ATP]=10 μM and • [ST3-Sox]=10 μM (ATP^appKM=10 μM)
Briefly, 10× stock solutions of MK2 (PV3317, from Life Technologies), 1.13X ATP (AS001A), and Sox conjugated peptide substrate, S/T3-Sox, (KZN1031) were prepared in 1× kinase reaction buffer consisting of 20 mM Tris, pH 7.5, 5 mM MgCl2, 1 mM EGTA, 5 mM β-glycerophosphate, 5% glycerol (10× stock, KB001A) and 0.2 mM DTT (DS001A). Enzyme solution (5 μL) was added to each of DMSO ([…]) or serially diluted test compounds prepared in DMSO in a Corning (#3574) 384-well, white, non-binding surface microtiter plate (Corning, NY). Kinase reactions were started with the addition of 45 μL of the ATP-peptide substrate S/T3-Sox mix and monitored every 71 seconds for 120 minutes at λex360/λem485 in a Synergy H4 plate reader from BioTek (Winooski, VT) at room temperature.
Background signals from the no enzyme control wells were subtracted from all progress curves. The initial linear portions of the net progress curves were fit according to a linear equation to yield the slope and percentage of inhibition (% inhibition) at each compound concentration. The net progress curves obtained during the first two hours of reactions were also fit according to an ascending single-exponential equation (Eq. 1) to yield kobs values at each compound concentration. Plots of % Inhibition versus inhibitor concentrations were fit according to a dose-response equation (Eq. 2) to generate IC50 and Hill slope values while plots of kobs versus inhibitor concentration were fit according to Equation 3 (Eq. 3) to generate apparent kinact/K1 values using the GraphPad PRISM software (Version 6.00; GraphPad San Diego, CA).
where F is the fluorescence intensity from the plate reader, V0 is a constant reflecting the relationship between the instrument readout and product concentration, t is time, e is Euler's number, and kobs is the observed inactivation rate constant.
where % Inhibition is percentage of inhibition, IC50 is half maximal inhibitory concentration, [I] is the inhibitor concentration, and n is the Hill slope.
where kobs is the observed inactivation rate constant, kinact is the apparent inactivation rate constant, K1 is the apparent inhibition constant, and [I] is the inhibitor concentration. […] Potency results for the compounds tested are shown in Table 4 in the column entitled “MK2 IC50.”

Sequence of p38a activated, mitogen-activated protein kinase-activated protein kinase 2 (MAPKAP-K2 or MK2) enzyme (P49137 whole entry): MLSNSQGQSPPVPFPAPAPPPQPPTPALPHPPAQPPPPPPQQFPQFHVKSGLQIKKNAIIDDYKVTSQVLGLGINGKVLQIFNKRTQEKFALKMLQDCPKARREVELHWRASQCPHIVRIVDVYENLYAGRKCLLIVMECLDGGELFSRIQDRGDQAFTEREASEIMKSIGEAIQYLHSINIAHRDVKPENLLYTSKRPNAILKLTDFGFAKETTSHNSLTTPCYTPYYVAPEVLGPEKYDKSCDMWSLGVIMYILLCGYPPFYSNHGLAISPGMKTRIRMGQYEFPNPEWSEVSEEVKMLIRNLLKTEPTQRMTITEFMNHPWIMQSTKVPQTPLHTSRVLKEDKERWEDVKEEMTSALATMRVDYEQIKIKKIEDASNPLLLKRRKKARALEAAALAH

For the compound `COc1nnc(/C=C/C(F)(F)F)cc1-c1ccc2c(ccc3sc4c(c32)NC[C@@H](C)NC4=O)n1` [Example I-200, (R,E)-3-(3-methoxy-6-(3,3,3-trifluoroprop-1-en-1-yl)pyridazin-4-yl)-10-methyl-9,10,11,12-tetrahydro-8H-[1,4]diazepino[5′,6′:4,5]thieno[3,2-f]quinolin-8-one], the IC50 (usually the midpoint of a concentration-inhibition curve) worked out at 1000 nM.
Then `C#Cc1cc(-c2ccc3c(ccc4sc5c(c43)NC[C@@H](C)NC5=O)n2)c(OCCN2CCOCC2)nn1` [Example I-134, (R)-3-(6-ethynyl-3-(2-morpholinoethoxy)pyridazin-4-yl)-10-methyl-9,10,11,12-tetrahydro-8H-[1,4]diazepino[5′,6′:4,5]thieno[3,2-f]quinolin-8-one], with 137 nM; and `C[C@@H]1CNc2c(sc3ccc4nc(-c5cc(Cl)nc(COC6CCN(C)CC6)n5)ccc4c23)C(=O)N1` [Example I-15, (R)-3-(6-chloro-2-(((1-methylpiperidin-4-yl)oxy)methyl)pyrimidin-4-yl)-10-methyl-9,10,11,12-tetrahydro-8H-[1,4]diazepino[5′,6′:4,5]thieno[3,2-f]quinolin-8-one], with 10 nM; and `C#Cc1cc(-c2ccc3c(ccc4sc5c(c43)NC[C@@H](C)NC5=O)n2)c(CN2CCOCC2)cn1` [Example I-154, (R)-3-(2-ethynyl-5-(morpholinomethyl)pyridin-4-yl)-10-methyl-9,10,11,12-tetrahydro-8H-[1,4]diazepino[5′,6′:4,5]thieno[3,2-f]quinolin-8-one], with 49 nM.
The figure for `C[C@@H]1CNc2c(sc3ccc4nc(-c5cc(Cl)ncc5C(F)F)ccc4c23)C(=O)N1` [Example I-93, (R)-3-(2-chloro-5-(difluoromethyl)pyridin-4-yl)-10-methyl-9,10,11,12-tetrahydro-8H-[1,4]diazepino[5′,6′:4,5]thieno[3,2-f]quinolin-8-one] is 238 nM; for `C=Cc1cnc(C)c(-c2ccc3c(ccc4sc5c(c43)NC[C@@H](C)NC5=O)n2)n1` [Example I-181, (R)-10-methyl-3-(3-methyl-6-vinylpyrazin-2-yl)-9,10,11,12-tetrahydro-8H-[1,4]diazepino[5′,6′:4,5]thieno[3,2-f]quinolin-8-one] it is 39 nM.
Then `C=Cc1cc(-c2ccc3c(ccc4sc5c(c43)NC[C@@H](C)NC5=O)n2)c(C#N)cn1` [Example I-161, (R)-4-(10-methyl-8-oxo-9,10,11,12-tetrahydro-8H-[1,4]diazepino[5′,6′:4,5]thieno[3,2-f]quinolin-3-yl)-6-vinylnicotinonitrile], with 2 nM; and `C=C(CN1CCCC1)c1cc(-c2ccc3c(ccc4sc5c(c43)NC[C@@H](C)NC5=O)n2)ccn1` [Example I-116, (R)-10-methyl-3-(2-(3-(pyrrolidin-1-yl)prop-1-en-2-yl)pyridin-4-yl)-9,10,11,12-tetrahydro-8H-[1,4]diazepino[5′,6′:4,5]thieno[3,2-f]quinolin-8-one], with 6 nM; and `C[C@@H]1CNc2c(sc3ccc4nc(-c5nc(Cl)ncc5CO)ccc4c23)C(=O)N1` [Example I-75, (R)-3-(2-chloro-5-(hydroxymethyl)pyrimidin-4-yl)-10-methyl-9,10,11,12-tetrahydro-8H-[1,4]diazepino[5′,6′:4,5]thieno[3,2-f]quinolin-8-one], with 470 nM.
For `C#Cc1cc(-c2ccc3c(ccc4sc5c(c43)NC[C@@H](C)NC5=O)n2)cc(N2CCN(C)CC2)n1` [Example I-95, (R)-3-(2-ethynyl-6-(4-methylpiperazin-1-yl)pyridin-4-yl)-10-methyl-9,10,11,12-tetrahydro-8H-[1,4]diazepino[5′,6′:4,5]thieno[3,2-f]quinolin-8-one], the IC50 amounted to 42 nM.
For `C=Cc1cc(-c2ccc3c(ccc4sc5c(c43)NC[C@@H](C)NC5=O)n2)c(Cl)cn1` [Example I-143, (R)-3-(5-chloro-2-vinylpyridin-4-yl)-10-methyl-9,10,11,12-tetrahydro-8H-[1,4]diazepino[5′,6′:4,5]thieno[3,2-f]quinolin-8-one], the IC50 came to 59 nM.
Consider `C[C@@H]1CNc2c(sc3ccc4nc(-c5cnc(Cl)[nH]5)ccc4c23)C(=O)N1` [Example I-151, (R)-3-(2-chloro-1H-imidazol-5-yl)-10-methyl-9,10,11,12-tetrahydro-8H-[1,4]diazepino[5′,6′:4,5]thieno[3,2-f]quinolin-8-one], for which the IC50 was found to be 23 nM.
Turning to `C=Cc1cc(-c2ccc3c(ccc4sc5c(c43)NC[C@@H](C)NC5=O)n2)cc(N2CCCCC2)n1` [Example I-177, (R)-10-methyl-3-(2-(piperidin-1-yl)-6-vinylpyridin-4-yl)-9,10,11,12-tetrahydro-8H-[1,4]diazepino[5′,6′:4,5]thieno[3,2-f]quinolin-8-one], the IC50 came to 140 nM.
In the case of `C[C@@H]1CNc2c(sc3ccc4nc(-c5ccnc(Cl)n5)ccc4c23)C(=O)N1` [Example I-8, (R)-3-(2-chloropyrimidin-4-yl)-10-methyl-9,10,11,12-tetrahydro-8H-[1,4]diazepino[5′,6′:4,5]thieno[3,2-f]quinolin-8-one], the IC50 was determined as 75 nM.
In the case of `COCc1nc(Cl)cc(-c2ccc3c(ccc4sc5c(c43)NC[C@@H](C)NC5=O)n2)n1` [Example I-7, (R)-3-(6-chloro-2-(methoxymethyl)pyrimidin-4-yl)-10-methyl-9,10,11,12-tetrahydro-8H-[1,4]diazepino[5′,6′:4,5]thieno[3,2-f]quinolin-8-one], the IC50 is 6 nM.
Turning to `C=Cc1cc(-c2ccc3c(ccc4sc5c(c43)NC[C@@H](C)NC5=O)n2)c(OC(F)F)cn1` [Example I-247, (R)-3-(5-(difluoromethoxy)-2-vinylpyridin-4-yl)-10-methyl-9,10,11,12-tetrahydro-8H-[1,4]diazepino[5′,6′:4,5]thieno[3,2-f]quinolin-8-one], the IC50 came out at 360 nM.
For `C=Cc1ncc(OC)c(-c2ccc3c(ccc4sc5c(c43)NC[C@@H](C)NC5=O)n2)n1` [Example I-32, (R)-3-(5-methoxy-2-vinylpyrimidin-4-yl)-10-methyl-9,10,11,12-tetrahydro-8H-[1,4]diazepino[5′,6′:4,5]thieno[3,2-f]quinolin-8-one], the IC50 came out at 245 nM.
With `C=Cc1nnc(C)n1-c1ccc2c(ccc3sc4c(c32)NC[C@@H](C)NC4=O)n1` [Example I-223, (R)-10-methyl-3-(3-methyl-5-vinyl-4H-1,2,4-triazol-4-yl)-9,10,11,12-tetrahydro-8H-[1,4]diazepino[5′,6′:4,5]thieno[3,2-f]quinolin-8-one], the IC50 worked out at 1000 nM.
Take `C=C(F)c1ncc(F)c(-c2ccc3c(ccc4sc5c(c43)NC[C@@H](C)NC5=O)n2)n1` [Example I-31, (R)-3-(5-fluoro-2-(1-fluorovinyl)pyrimidin-4-yl)-10-methyl-9,10,11,12-tetrahydro-8H-[1,4]diazepino[5′,6′:4,5]thieno[3,2-f]quinolin-8-one]: the IC50 was 24 nM.
With `C=C(CN(C)C)c1cc(-c2ccc3c(ccc4sc5c(c43)NC[C@@H](C)NC5=O)n2)ccn1` [Example I-117, (R)-3-(2-(3-(dimethylamino)prop-1-en-2-yl)pyridin-4-yl)-10-methyl-9,10,11,12-tetrahydro-8H-[1,4]diazepino[5′,6′:4,5]thieno[3,2-f]quinolin-8-one], the IC50 is 6 nM.
